US20260193227A1, “THERAPEUTIC COMPOUNDS AND METHODS” (UNIVERSITY OF IOWA RESEARCH FOUNDATION, priority 2022, published 2026)

Key:
RAD52-ssDNA interaction [1] = biological target: T1, RAD52-ssDNA interaction (Homo sapiens, UniProt P43351); settings: Hengel et al. 2016; cited from earlier work
T1 construct: 6xHis; made in house
T1 sequence (P43351 1-418): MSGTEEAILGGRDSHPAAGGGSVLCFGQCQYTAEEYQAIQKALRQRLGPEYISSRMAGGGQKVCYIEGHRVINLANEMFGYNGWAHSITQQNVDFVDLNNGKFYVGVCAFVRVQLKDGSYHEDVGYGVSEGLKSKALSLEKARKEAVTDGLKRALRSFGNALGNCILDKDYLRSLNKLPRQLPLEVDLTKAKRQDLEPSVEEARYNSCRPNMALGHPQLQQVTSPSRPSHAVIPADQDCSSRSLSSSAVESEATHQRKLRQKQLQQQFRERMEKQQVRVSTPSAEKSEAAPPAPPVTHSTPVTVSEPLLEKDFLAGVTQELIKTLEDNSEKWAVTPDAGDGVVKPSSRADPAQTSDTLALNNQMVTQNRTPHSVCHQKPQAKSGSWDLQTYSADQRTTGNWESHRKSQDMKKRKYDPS

BRCA2-depleted cells = settings: Hengel et al. 2016; cited from earlier work
RAD52-ssDNA interaction [2] = biological target: T1, RAD52-ssDNA interaction; test: FRET-based inhibition of the RAD52-ssDNA interaction; format: binding; settings: for selectivity towards RAD52 over RPA: in vitro FRET-based assays; for IC50: 6 nM RAD52, 1 nM Cy3-dT30-Cy5 ssDNA, 25° C., value ± fitting error
Procedure: (§1) Proteins: The 6×His-tagged human RAD52 proteins (wild type and mutants) and untagged human RPA were expressed and purified as previously described in (Hengel S R, eLife. 2016; 5; Grimme J M, et al., Nucleic Acids Res. 2010; 38(9):2917-30; and Henricksen L A, et al., The Journal of biological chemistry. 1994; 269(15):11121-32). RPA and RAD52 protein concentrations were determined by measuring absorbance at 280 nm using extinction coefficients of 88,830 M^−1 cm^−1 and 40,470 M^−1 cm^−1, respectively.
(§2) FRET-based DNA binding and inhibition assays: FRET-based that monitor the RAD52-ssDNA, RPA-ssDNA and RAD52-RPA-ssDNA binding were carried out as previously described (Hengel S R, eLife. 2016; 5; Grimme J M, et al., Nucleic Acids Res. 2010; 38(9):2917-30; and Grimme J M, Spies M. FRET-based assays to monitor DNA binding and annealing by Rad52 recombination mediator protein. Methods in molecular biology (Clifton, NJ). 2011; 745:463-83) using Cary Eclipse Spectrofluorimeter (Agilent) at 25° C., in 5 mm quartz cuvettes, and in buffer containing 30 mM Tris-Acetate (pH 7.5) and 1 mM DTT. Cy3 dye was excited at 530 nm and its emission was monitored at 565 nm. Emission of Cy5 acceptor fluorophore excited through the energy transfer from Cy3 donor is monitored at 660 nm simultaneously with emission of Cy3 dye. Both the excitation and the emission slits were set to 10 nm. All experiments were carried out using 1 nM (molecules) Cy3-dT30-Cy5 ssDNA. The optimal concentrations of the RAD52 (6 nM) and RPA (1 nM) proteins were selected by titrating the respective protein into 1 nM Cy3-dT30-Cy5 solution, and chosen based on the largest separation of the FRET values corresponding to the protein bound and free DNA.
(§3) The inhibition of the RAD52-ssDNA, RPA-ssDNA and RAD52-RPA-ssDNA complexes was evaluated by titrating each compound to the respective complex, measuring Cy3 and Cy5 fluorescence, and calculating FRET as previously described (Hengel, S. R., et al., eLife, 5).
(§4) Spectral properties of many compounds overlapped with the Cy3 and Cy5 fluorescence. To correct the calculated FRET values for the compound signal, the fluorogenic compounds were titrated into buffer and into solution of 1 nM Cy3-dT30-Cy5. For all tested compounds, the change in the signal in the Cy3 and Cy5 channels with and without Cy3/Cy5-labeled DNA present was the same. […] To account for the dye fluorescence, for each compound concentration, the apparent change in FRET of the ssDNA in the presence the compound was subtracted from the respective FRET signal of the RAD52-ssDNA, RPA-ssDNA or RAD52-ssDNA-RPA complex at the same inhibitor concentration. The IC50 values were calculated by fitting the corrected FRET data to the four-parameter dose response model using GraphPad Prism. All data are shown as average for at least three independent experiments ±standard deviation. The IC50 values are presented with their respective fitting error.

RPA-ssDNA-RAD52 complex = biological target: T2, RPA-ssDNA-RAD52 complex (Homo sapiens, UniProt P43351); test: FRET-based inhibition of the RPA-ssDNA-RAD52 complex; format: binding; settings: for IC50: value ± fitting error, N/A = no activity
T2 construct: 6xHis; made in house
T2 sequence (P43351 1-418): T1 sequence (P43351 1-418)
Procedure: as §1, §2, §3, §4

EUFA423F cells [3] = test: CellTiter-Glo cell viability, BRCA2-mutated cells; format: cell-based, human; settings: for toxicity towards EUFA423 cells: BRCA2-mutated cells, yes/no; for toxicity / selective toxicity towards BRCA2-mutated cells in cell viability assays: EUFA423F versus EUFA423F HA, CellTiter-Glo, 72 hours
Excerpt: (§5) Cell lines: EUFA423F cells that are derived from a Fanconi Anemia patient with complementation group D1 and have biallelic mutations (7691 insAT and 9900 insA) in BRCA2 that result in two different truncated forms of BRCA2 (Howlett N G, et al., Science (New York, NY). 2002; 297(5581):606-9) and its counterpart complemented with expression vector for full-length BRCA2 (EUFA HA) were a generous gift from Dr. Simon Powell, Molecular Biology Program, Radiation Oncology, Sloan-Kettering Cancer Center, New York, NY).
(§6) Cell proliferation assay: Selective toxicity of the compounds towards human BRCA2 deficient cells was tested in EUFA423F and its complement EUFA423F HA using CellTiter-Glo® Luminescent Cell Viability Assay (Promega, Madison, WI). The cell lines were maintained in DMEM (Gibco/ThermoFisher Scientific, Waltham, MA) supplemented with 10% FBS and 10 mM HEPES (Gibco/ThermoFisher Scientific, Waltham, MA). EUFA423F HA cells were routinely supplemented with G418 in order to maintain the BRCA2 expression plasmid. Both cell lines were seeded in sterile tissue culture treated, white opaque 384-well plates (Perkin Elmer Inc., Waltham, MA) 3000 cells/well for EUFA423F HA and 2500 cells/well for EUFA423F) and allowed to adhere for 24 hours. Compounds dissolved in DMSO were added in the concentration range of 0-100 μM. Controls were treated with equivalent DMSO volumes. The cells were treated with compounds for 72 hours (to ensure that all cells experienced at least two S-phases). Post treatment, the cells were washed, treated with the CellTiter-Glo® reagent was added and the plate was analyzed as using a Gen5 (ver2.1) luminosity plate reader. The luminescence that reports on ATP generation by the surviving cells was normalized for the DMSO treated control as 100%. The normalized luminescence (average±standard deviation for at least three independent measurements obtained with different cell passages) was plotted in GraphPad Prism as a function of compound concentration. Clonogenic Survival: EUFA423F and EUFA423F HA cells were seeded in a 96 well plate. Compounds dissolved in DMSO were added to final concentrations of 0, 50, and 100 μM for the compound of Example 8 and the compound of Example 1, and 0, 5, and 10 μM for the compounds of Examples 2-7. The cells were treated with compounds for 72 hours. Post treatment, cell cultures were harvested by collecting all non-adherent cells in the well, trypsinization of all adherent cells, combining, pelleting and then resuspending in fresh media. Cultures treated with DMSO only were subsequently counted using a hemocytometer and plated at a density of 2000, 200 and 20 cells per well in 6-well culture plates, equal volumes of cultures were plated each inhibitor concentration. Each treatment and cell density conditions for both cell lines were plated in triplicate. After expanding the colonies for a period of 8 days, cultures were fixed with a solution of 70% ethanol and crystal violet for clonogenic survival analysis. Pictures of individual wells were taken using GelCount (Version 1.3.0.4) by Oxford Optronix (Abingdon UK). A colony had to contain at least 50 cells to be counted. The number of surviving colonies following treatment are presented as a percentage of number of colonies in the experiment where the cells were treated with DMSO only.

EUFA423F HA cells [4] = test: CellTiter-Glo cell viability, BRCA2-complemented cells; format: cell-based, human; settings: yes/no
Excerpt: as §5, §6

RPA-ssDNA interaction = biological target: T3, RPA-ssDNA interaction (Homo sapiens, UniProt P27694); test: FRET-based inhibition of the RPA-ssDNA interaction; format: binding; settings: 1 nM RPA, 1 nM Cy3-dT30-Cy5 ssDNA; value ± fitting error; N/A = no activity
T3 construct: made in house
T3 sequence (P27694 whole entry): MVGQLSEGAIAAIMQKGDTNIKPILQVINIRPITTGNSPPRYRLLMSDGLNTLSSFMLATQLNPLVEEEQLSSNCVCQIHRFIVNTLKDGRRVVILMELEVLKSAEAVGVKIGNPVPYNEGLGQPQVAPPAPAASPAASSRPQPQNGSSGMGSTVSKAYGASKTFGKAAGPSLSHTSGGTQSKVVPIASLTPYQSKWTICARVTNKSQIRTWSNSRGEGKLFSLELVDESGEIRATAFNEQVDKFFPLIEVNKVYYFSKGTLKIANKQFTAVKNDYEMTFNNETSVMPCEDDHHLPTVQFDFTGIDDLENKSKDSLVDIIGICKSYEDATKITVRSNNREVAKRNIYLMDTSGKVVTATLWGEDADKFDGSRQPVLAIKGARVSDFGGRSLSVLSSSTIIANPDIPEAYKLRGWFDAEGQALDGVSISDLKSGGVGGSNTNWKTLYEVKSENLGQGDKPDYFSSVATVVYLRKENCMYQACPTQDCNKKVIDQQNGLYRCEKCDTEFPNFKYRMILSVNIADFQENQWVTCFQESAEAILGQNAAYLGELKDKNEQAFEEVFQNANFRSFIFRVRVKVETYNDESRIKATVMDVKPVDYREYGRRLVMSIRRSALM
T3 sequence (P15927 whole entry partner): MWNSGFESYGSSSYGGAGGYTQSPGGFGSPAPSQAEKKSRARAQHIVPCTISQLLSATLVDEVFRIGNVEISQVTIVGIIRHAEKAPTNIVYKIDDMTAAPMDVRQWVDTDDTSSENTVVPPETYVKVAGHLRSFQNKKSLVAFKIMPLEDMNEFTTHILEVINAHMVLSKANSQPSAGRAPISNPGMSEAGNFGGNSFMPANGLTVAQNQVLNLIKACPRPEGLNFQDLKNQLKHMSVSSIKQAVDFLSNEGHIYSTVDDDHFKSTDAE
T3 sequence (P35244 whole entry partner): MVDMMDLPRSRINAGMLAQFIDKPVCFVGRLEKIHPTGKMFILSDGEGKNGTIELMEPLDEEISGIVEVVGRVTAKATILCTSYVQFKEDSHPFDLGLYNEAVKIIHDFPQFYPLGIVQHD
Procedure: as §1, §2, §3, §4

[5] = Solubility in cell culture medium; format: physicochemical; settings: for solubility: plasma or biological fluid
EUFA423F HA cells [6] = settings: Clark et al. 2012; Howlett et al. 2002; cited from earlier work
EUFA423F cells [7] = settings: Clark et al. 2012; cited from earlier work

IC50 (RAD52-ssDNA interaction [2]) [µM] | IC50 (RPA-ssDNA interaction) [µM] | IC50 (RPA-ssDNA-RAD52 complex) [µM] | Compound | selectivity towards RAD52 over RPA (RAD52-ssDNA interaction [2]) | toxicity towards EUFA423 cells (EUFA423F cells [3]) | toxicity towards EUFA423 HA (BRCA2-complemented cells) (EUFA423F HA cells [4]) | toxicity / selective toxicity towards BRCA2-mutated cells in cell viability assays (EUFA423F cells [3]) | also measured
– | – | – | Oc1cc(O)c2c(c1)O[C@H](c1cc(O)c(O)c(O)c1)[C@H](O)C2 [EGC, epigallochatechin] | – | – | – | – | competition with ssDNA binding to RAD52 (RAD52-ssDNA interaction [1]): competed with ssDNA binding to RAD52; efficacy in BRCA2-depleted cells (BRCA2-depleted cells): effective
– | – | – | O=C(Cn1cc([N+](=O)[O-])cc(F)c1=O)c1c[nH]c2ccc(F)cc12 [Example 2] | shows selectivity towards RAD52 over RPA | yes | no | – | effect on the RPA-ssDNA-RAD52 complex (RPA-ssDNA-RAD52 complex; FRET titration): unable to dislodge RAD52; toxicity / selective toxicity towards BRCA2-mutated cells in cell viability assays (EUFA423F cells [3]; listed as Z58-54): selectively toxic to BRCA2-mutated cells; toxicity / selective toxicity towards BRCA2-mutated cells in cell viability assays (EUFA423F cells [3]; listed as Z5862216254): effective and specific in cell viability assays
7.97 ± 0.84 | 15.9 ± 1.4 | 7 ± 0.29 | Cc1cc([N+](=O)[O-])cn(CC(=O)c2c[nH]c3ccc(Cl)cc23)c1=O [Example 3] | shows selectivity towards RAD52 over RPA | yes | no | selectively toxic to BRCA2-mutated cells | solubility [5]: > 10 µM
– | – | – | Cc1ccn(CC(=O)c2c[nH]c3ccc(F)cc23)c(=O)c1[N+](=O)[O-] [Example 4] | shows selectivity towards RAD52 over RPA | yes | no | selectively toxic to BRCA2-mutated cells | solubility [5]: > 10 µM
– | – | – | O=C(Cn1cc([N+](=O)[O-])cc(Cl)c1=O)c1c[nH]c2ccc(F)cc12 [Example 5] | shows selectivity towards RAD52 over RPA | yes | no | selectively toxic to BRCA2-mutated cells | –
2.02 ± 0.12 | 1.12 ± 0.13 | 0.76 ± 0.05 | Cc1c([N+](=O)[O-])ccn(CC(=O)c2c[nH]c3ccc(Br)cc23)c1=O [Example 6] | shows selectivity towards RAD52 over RPA | no | no | failed to inhibit both BRCA2-mutated and BRCA2-complemented cells | solubility / aggregation in cell culture medium [5]: poorly soluble in cell culture medium
2.84 ± 0.32 | 28.9 ± 4 | 4.55 ± 0.16 | O=C(Cn1cc([N+](=O)[O-])cc(Br)c1=O)c1c[nH]c2ccc(Cl)cc12 [Example 7] | shows selectivity towards RAD52 over RPA | yes | no | selectively toxic to BRCA2-mutated cells | –
– | – | – | CO[C@@]12[C@H](COC(N)=O)C3=C(C(=O)C(C)=C(N)C3=O)N1C[C@@H]1N[C@@H]12 [mitomycin C] | – | – | – | – | sensitivity of the BRCA2-complemented (HA) cell line to the agent (EUFA423F HA cells [6]): resistant
– | – | – | C[C@]1(c2nc3c(C(N)=O)cccc3[nH]2)CCCN1 [veliparib] | – | – | – | – | sensitivity of EUFA423F cells to the agent (EUFA423F cells [7]): sensitive; sensitivity of the BRCA2-complemented (HA) cell line to the agent (EUFA423F HA cells [6]): resistant
